Laboratory results: the supplement of paper PMC10307832

Columns and labels:
Experiment in all cases: relative viability (nuclei count vs DMSO), 5 days (fraction); higher = more cells survive
ChaGo-K-1 = tested on: ChaGo-K-1
Outline: (§1)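 Five library-drug doses in √10 steps were combined with a fixed anchor-drug dose, or a single drug was given alone, by pin tool to lung cancer cell lines in 1536-well plates the day after seeding. Nuclei were stained and counted after 5 days. Relative viability is the nuclei count in treated wells over that in vehicle wells, taken as the median of duplicate plates.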

NCI-H727 = tested on: NCI-H727
Outline: as §1

HCC-827 = tested on: HCC-827
Outline: as §1

SK-MES-1 = tested on: SK-MES-1
Outline: as §1

EMC-BAC-2 = tested on: EMC-BAC-2
Outline: as §1

NCI-H2126 = tested on: NCI-H2126
Outline: as §1

HCC-78 = tested on: HCC-78
Outline: as §1

COR-L 105 = tested on: COR-L 105
Outline: as §1

LU99A = tested on: LU99A
Outline: as §1

LOU-NH91 = tested on: LOU-NH91
Outline: as §1

EPLC-272H = tested on: EPLC-272H
Outline: as §1

NCI-H1734 = tested on: NCI-H1734
Outline: as §1

BEN = tested on: BEN
Outline: as §1

LK-2 = tested on: LK-2
Outline: as §1

NCI-H1792 = tested on: NCI-H1792
Outline: as §1

SW 1573 = tested on: SW 1573
Outline: as §1

RERF-LC-KJ = tested on: RERF-LC-KJ
Outline: as §1

NCI-H1944 = tested on: NCI-H1944
Outline: as §1

NCI-H1650 = tested on: NCI-H1650
Outline: as §1

EKVX = tested on: EKVX
Outline: as §1

NCI-H358 = tested on: NCI-H358
Outline: as §1

LCLC-97TM1 = tested on: LCLC-97TM1
Outline: as §1

NCI-H2087 = tested on: NCI-H2087
Outline: as §1

SMILES: O=c1[nH]c2ccccc2n1C1CCN(CCCC(c2ccc(F)cc2)c2ccc(F)cc2)CC1 [Pimozide] + CC(=O)Nc1cccc(-n2c(=O)n(C3CC3)c(=O)c3c(Nc4ccc(I)cc4F)n(C)c(=O)c(C)c32)c1 [Trametinib] (partner 0.02 µM)
- relative viability (ChaGo-K-1; first compound 0.08 µM): 0.873
- relative viability (ChaGo-K-1; first compound 0.253 µM): 0.871
- relative viability (ChaGo-K-1; first compound 0.8 µM): 0.851
- relative viability (ChaGo-K-1; first compound 2.53 µM): 0.872
- relative viability (ChaGo-K-1; first compound 8 µM): 0.874
- relative viability (NCI-H727; first compound 0.08 µM): 0.396
- relative viability (NCI-H727; first compound 0.253 µM): 0.426
- relative viability (NCI-H727; first compound 0.8 µM): 0.383
- relative viability (NCI-H727; first compound 2.53 µM): 0.443
- relative viability (NCI-H727; first compound 8 µM): 0.403
- relative viability (HCC-827; first compound 0.253 µM): 0.538
- relative viability (HCC-827; first compound 0.8 µM): 0.556
- relative viability (HCC-827; first compound 2.53 µM): 0.532
- relative viability (HCC-827; first compound 8 µM): 0.561
- relative viability (SK-MES-1; first compound 0.08 µM): 0.533
- relative viability (SK-MES-1; first compound 0.253 µM): 0.517
- relative viability (SK-MES-1; first compound 0.8 µM): 0.508
- relative viability (SK-MES-1; first compound 2.53 µM): 0.744
- relative viability (SK-MES-1; first compound 8 µM): 0.441
- relative viability (EMC-BAC-2; first compound 0.08 µM): 0.814
- relative viability (EMC-BAC-2; first compound 0.253 µM): 0.891
- relative viability (EMC-BAC-2; first compound 0.8 µM): 0.792
- relative viability (EMC-BAC-2; first compound 2.53 µM): 0.815
- relative viability (EMC-BAC-2; first compound 8 µM): 0.802
- relative viability (NCI-H2126; first compound 0.08 µM): 0.589
- relative viability (NCI-H2126; first compound 0.253 µM): 0.584
- relative viability (NCI-H2126; first compound 0.8 µM): 0.566
- relative viability (NCI-H2126; first compound 2.53 µM): 0.592
- relative viability (NCI-H2126; first compound 8 µM): 0.533
- relative viability (HCC-78; first compound 0.08 µM): 0.704
- relative viability (HCC-78; first compound 0.8 µM): 0.688
- relative viability (HCC-78; first compound 2.53 µM): 0.776
- relative viability (HCC-78; first compound 8 µM): 0.757
- relative viability (COR-L 105; first compound 0.08 µM): 0.399
- relative viability (COR-L 105; first compound 0.253 µM): 0.418
- relative viability (COR-L 105; first compound 0.8 µM): 0.425
- relative viability (COR-L 105; first compound 2.53 µM): 0.437
- relative viability (COR-L 105; first compound 8 µM): 0.779
- relative viability (LU99A; first compound 0.08 µM): 0.66
- relative viability (LU99A; first compound 0.8 µM): 0.522
- relative viability (LU99A; first compound 2.53 µM): 0.48
- relative viability (LU99A; first compound 8 µM): 0.524
- relative viability (LOU-NH91; first compound 0.08 µM): 0.649
- relative viability (LOU-NH91; first compound 0.253 µM): 0.822
- relative viability (LOU-NH91; first compound 0.8 µM): 0.755
- relative viability (LOU-NH91; first compound 2.53 µM): 0.841
- relative viability (LOU-NH91; first compound 8 µM): 0.819
- relative viability (EPLC-272H; first compound 0.08 µM): 0.282
- relative viability (EPLC-272H; first compound 0.253 µM): 0.26
- relative viability (EPLC-272H; first compound 0.8 µM): 0.27
- relative viability (EPLC-272H; first compound 2.53 µM): 0.263
- relative viability (EPLC-272H; first compound 8 µM): 0.233
- relative viability (NCI-H1734; first compound 0.08 µM): 0.685
- relative viability (NCI-H1734; first compound 0.253 µM): 0.697
- relative viability (NCI-H1734; first compound 0.8 µM): 0.734
- relative viability (NCI-H1734; first compound 2.53 µM): 0.657
- relative viability (NCI-H1734; first compound 8 µM): 0.673
- relative viability (BEN; first compound 0.08 µM): 1.17
- relative viability (BEN; first compound 0.253 µM): 1.16
- relative viability (BEN; first compound 0.8 µM): 1.01
- relative viability (BEN; first compound 2.53 µM): 0.984
- relative viability (BEN; first compound 8 µM): 1.29
- relative viability (LK-2; first compound 0.08 µM): 0.717
- relative viability (LK-2; first compound 0.253 µM): 0.826
- relative viability (LK-2; first compound 0.8 µM): 0.749
- relative viability (LK-2; first compound 2.53 µM): 0.492
- relative viability (LK-2; first compound 8 µM): 0.727
- relative viability (NCI-H1792; first compound 0.08 µM): 0.466
- relative viability (NCI-H1792; first compound 0.253 µM): 0.412
- relative viability (NCI-H1792; first compound 0.8 µM): 0.36
- relative viability (NCI-H1792; first compound 2.53 µM): 0.393
- relative viability (NCI-H1792; first compound 8 µM): 0.454
- relative viability (SW 1573; first compound 0.08 µM): 0.645
- relative viability (SW 1573; first compound 0.253 µM): 0.448
- relative viability (SW 1573; first compound 0.8 µM): 0.394
- relative viability (SW 1573; first compound 2.53 µM): 0.308
- relative viability (SW 1573; first compound 8 µM): 0.344
- relative viability (RERF-LC-KJ; first compound 0.08 µM): 0.851
- relative viability (RERF-LC-KJ; first compound 0.253 µM): 0.778
- relative viability (RERF-LC-KJ; first compound 0.8 µM): 0.742
- relative viability (RERF-LC-KJ; first compound 2.53 µM): 0.764
- relative viability (RERF-LC-KJ; first compound 8 µM): 0.609
- relative viability (NCI-H1944; first compound 0.08 µM): 0.396
- relative viability (NCI-H1944; first compound 2.53 µM): 0.346
- relative viability (NCI-H1944; first compound 8 µM): 0.409
- relative viability (NCI-H1650; first compound 0.08 µM): 0.625
- relative viability (NCI-H1650; first compound 0.253 µM): 0.591
- relative viability (NCI-H1650; first compound 0.8 µM): 0.516
- relative viability (NCI-H1650; first compound 2.53 µM): 0.571
- relative viability (NCI-H1650; first compound 8 µM): 0.718
- relative viability (EKVX; first compound 0.253 µM): 0.294
- relative viability (EKVX; first compound 0.8 µM): 0.31
- relative viability (EKVX; first compound 2.53 µM): 0.344
- relative viability (EKVX; first compound 8 µM): 0.326
- relative viability (NCI-H358; first compound 0.08 µM): 0.135
- relative viability (NCI-H358; first compound 0.253 µM): 0.147
- relative viability (NCI-H358; first compound 0.8 µM): 0.137
- relative viability (NCI-H358; first compound 2.53 µM): 0.13
- relative viability (NCI-H358; first compound 8 µM): 0.126
- relative viability (LCLC-97TM1; first compound 0.08 µM): 0.191
- relative viability (LCLC-97TM1; first compound 0.253 µM): 0.189
- relative viability (LCLC-97TM1; first compound 0.8 µM): 0.166
- relative viability (LCLC-97TM1; first compound 2.53 µM): 0.185
- relative viability (LCLC-97TM1; first compound 8 µM): 0.207
- relative viability (NCI-H2087; first compound 0.08 µM): 0.243
- relative viability (NCI-H2087; first compound 0.253 µM): 0.24
- relative viability (NCI-H2087; first compound 2.53 µM): 0.179
- relative viability (NCI-H2087; first compound 8 µM): 0.205
